In US20220324835A1 (Nurix Therapeutics, Inc., priority 2018, published 2022):

Assays:
T-cell [1] = experiment: CD25 cell surface staining on T-cells co-stimulated with anti-CD3 and anti-CD28 antibody (Biological Example 2); assay type: cell-based, human; settings: Homo sapiens, T-cell
Outline: (§1)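 T-cells were stimulated with anti-CD3 antibody alone or with anti-CD28 antibody, in the presence or absence of Cbl-b inhibitor. IL-2 secretion or CD25 surface staining was measured, and values expressed as fold over the uninhibited baseline […].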

Cbl-b [2] = target: T1, Cbl-b (Homo sapiens, UniProt Q13191); experiment: Cbl-b activity assay (Cbl-b inhibition assay), TR-FRET of Cbl-b interaction with UbcH5B-Ub; assay type: biochemical; settings: assay buffer with 100 mM NaCl, 60 nM Src kinase; read-out: Cbl-b activity IC50
Outline: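 UbcH5B (C85K) conjugated to N-terminally Bodipy-Fluorescein-labeled ubiquitin served as the fluorescent partner. After compound preincubation, Src kinase (60 nM) with 1 mM ATP and 5 mM MgCl2 (final) was added for 1.5 h, followed by a further 1 h incubation. Some values were obtained with 50 mM NaCl and 30 nM Src.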

T-cell [3] = experiment: IL-2 secretion from T-cells stimulated with anti-CD3 antibody alone (Biological Example 2); assay type: cell-based, human; settings: T-cell
Cbl-b [4] = target: T1, Cbl-b; experiment: Cbl-b inhibition assay (Cbl-b activity assay, FRET, Biological Example 1; 100 mM NaCl, 60 nM Src kinase); assay type: biochemical; settings: upper bound stated in text lists; read-out: IC50 values in the Cbl-b inhibition assay of Biological Example 1
Outline: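 FRET read-out: loss of signal marks inhibition. Mix = biotin-Avi-Cbl-b (N-term), Src kinase, UbcH5B-Ub(Bodipy-FL, irreversible conjugate), streptavidin-Tb, assay buffer.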

T-cell [5] = experiment: IL-2 secretion from T-cells co-stimulated with anti-CD3 and anti-CD28 antibody (Biological Example 2); assay type: cell-based, human; settings: Homo sapiens, T-cell
Outline: as §1

T-cell [6] = experiment: CD25 cell surface staining on T-cells stimulated with anti-CD3 antibody alone (Biological Example 2); assay type: cell-based, human; settings: T-cell
[7] = 0.3 μM Cbl-b inhibitor, fold change over baseline (anti-CD3/anti-CD28 stimulated T-cells without inhibitor), read-out: CD25 staining Anti-CD3/Anti-CD28 stimulation
[8] = 1 μM Cbl-b inhibitor, fold change over baseline (anti-CD3/anti-CD28 stimulated T-cells without inhibitor), read-out: CD25 staining Anti-CD3/Anti-CD28 stimulation
[9] = Homo sapiens, 1 μM Cbl-b inhibitor, fold change over baseline (anti-CD3/anti-CD28 stimulated T-cells without inhibitor), read-out: IL-2 secretion Anti-CD3 stimulation
[10] = 0.3 μM Cbl-b inhibitor, fold change over baseline (anti-CD3/anti-CD28 stimulated T-cells without inhibitor), read-out: IL-2 secretion Anti-CD3/Anti-CD28 stimulation
[11] = 1 μM Cbl-b inhibitor, fold change over baseline (anti-CD3/anti-CD28 stimulated T-cells without inhibitor), read-out: IL-2 secretion Anti-CD3/Anti-CD28 stimulation
[12] = Homo sapiens, 1 μM Cbl-b inhibitor, fold change over baseline (anti-CD3/anti-CD28 stimulated T-cells without inhibitor), read-out: CD25 staining Anti-CD3 stimulation
[13] = read-out: CD25 staining, Anti-CD3/Anti-CD28 stimulation, fold change over baseline
[14] = read-out: IL-2 secretion, Anti-CD3/Anti-CD28 stimulation, fold change over baseline

T1 sequence (Q13191 36-427): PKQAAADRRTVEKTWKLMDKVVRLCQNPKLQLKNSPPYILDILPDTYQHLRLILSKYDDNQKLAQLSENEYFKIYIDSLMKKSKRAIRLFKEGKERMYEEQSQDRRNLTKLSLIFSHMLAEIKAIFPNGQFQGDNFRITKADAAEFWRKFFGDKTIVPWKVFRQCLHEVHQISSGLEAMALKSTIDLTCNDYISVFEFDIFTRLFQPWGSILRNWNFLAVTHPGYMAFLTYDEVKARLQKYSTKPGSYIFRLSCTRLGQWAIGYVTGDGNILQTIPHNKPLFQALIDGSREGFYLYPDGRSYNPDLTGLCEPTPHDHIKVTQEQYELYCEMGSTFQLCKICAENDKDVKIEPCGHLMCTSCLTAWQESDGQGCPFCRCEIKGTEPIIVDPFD

SMILES | fold induction at 0.3 µM (T-cell [1]; [7]) | fold induction at 1 µM (T-cell [1]; [8]) | IC50 (Cbl-b [2]) [nM] | fold induction at 1 µM (T-cell [3]; [9]) | IC50 (Cbl-b [4]) [nM] | fold induction at 0.3 µM (T-cell [5]; [10]) | fold induction at 1 µM (T-cell [5]; [11]) | fold induction at 1 µM (T-cell [6]; [12]) | further results
Cn1cnnc1CC1(c2cccc(N3Cc4c(cc(CN5CCC(C)(C#N)CC5)cc4C(F)(F)F)C3=O)c2)COC1 [Example 642, 4-methyl-1-((2-(3-(3-((4-methyl-4H-1,2,4-triazol-3-yl)methyl)oxetan-3-yl)phenyl)-3-oxo-7-(trifluoromethyl)isoindolin-5-yl)methyl)piperidine-4-carbonitrile] | 1.31 to 1.5 | 1.31 to 1.5 | < 100 | 0.151 to 0.2 | ≤ 100 | > 7.5 | > 7.5 | > 1 | –
Cn1cnnc1CC1(c2cccc(N3Cc4c(cc(CN5CCC6(CC5)CC6)cc4C(F)(F)F)C3=O)c2)COC1 [Example 641, 6-((6-azaspiro[2.5]octan-6-yl)methyl)-2-(3-(3-((4-methyl-4H-1,2,4-triazol-3-yl)methyl)oxetan-3-yl)phenyl)-4-(trifluoromethyl)isoindolin-1-one] | 1.51 to 1.75 | 1.51 to 1.75 | < 100 | > 0.201 | ≤ 100 | > 7.5 | > 7.5 | > 1 | –
Cc1nc2c(o1)CCN(Cc1cc3c(c(C(F)(F)F)c1)CN(c1cccc(C4(Cc5nncn5C)COC4)c1)C3=O)C2 [Example 649, 2-(3-(3-((4-methyl-4H-1,2,4-triazol-3-yl)methyl)oxetan-3-yl)phenyl)-6-((2-methyl-6,7-dihydrooxazolo[4,5-c]pyridin-5(4H)-yl)methyl)-4-(trifluoromethyl)isoindolin-1-one] | 1.01 to 1.3 | 1.31 to 1.5 | < 100 | > 0.201 | ≤ 100 | 5 to 7.5 | > 7.5 | > 1 | –
CN1CCN(Cc2cc3c(c(C(F)(F)F)c2)CN(c2cccc(C4(Cc5nncn5C)COC4)c2)C3=O)CC1 [Example 625, 2-(3-(3-((4-methyl-4H-1,2,4-triazol-3-yl)methyl)oxetan-3-yl)phenyl)-6-((4-methylpiperazin-1-yl)methyl)-4-(trifluoromethyl)isoindolin-1-one] | 1.31 to 1.5 | 1.31 to 1.5 | < 100 | > 0.201 | ≤ 100 | 2.51 to 5 | > 7.5 | > 1 | –
Cn1cnnc1CC1(c2cccc(N3Cc4c(cc(CN5Cc6cccnc6C5)cc4C(F)(F)F)C3=O)c2)COC1 [Example 660, 6-((5,7-dihydro-6H-pyrrolo[3,4-b]pyridin-6-yl)methyl)-2-(3-(3-((4-methyl-4H-1,2,4-triazol-3-yl)methyl)oxetan-3-yl)phenyl)-4-(trifluoromethyl)isoindolin-1-one] | 1.31 to 1.5 | 1.31 to 1.5 | < 100 | > 0.201 | ≤ 100 | 2.51 to 5 | > 7.5 | > 1 | –
C[C@H](c1cc2c(c(C(F)(F)F)c1)CN(c1cccc(C3(Cc4nncn4C)COC3)c1)C2=O)N1CC(F)C1 [Example 668a, (R)-6-(1-(3-fluoroazetidin-1-yl)ethyl)-2-(3-(3-((4-methyl-4H-1,2,4-triazol-3-yl)methyl)oxetan-3-yl)phenyl)-4-(trifluoromethyl)isoindolin-1-one] | 1.31 to 1.5 | 1.51 to 1.75 | < 100 | 0.101 to 0.15 | ≤ 100 | 2.51 to 5 | 5 to 7.5 | > 1 | –
CN1C2CCC1CN(c1cc3c(c(C(F)(F)F)c1)CN(c1cccc(C4(Cc5nncn5C)COC4)c1)C3=O)C2 [Compound 388, 2-(3-(3-((4-Methyl-4H-1,2,4-triazol-3-yl)methyl)oxetan-3-yl)phenyl)-6-(8-methyl-3,8-diazabicyclo[3.2.1]octan-3-yl)-4-(trifluoromethyl)isoindolin-1-one] | – | – | < 100 | – | ≤ 100 | – | – | – | fold induction at 0.3 µM (T-cell [1]; [13]): 1.01 to 1.3; fold induction at 1 µM (T-cell [1]; [13]): 1.01 to 1.3; fold induction at 1 µM (T-cell [3]; Homo sapiens, read-out: IL-2 secretion, Anti-CD3 stimulation, fold change over baseline): 0.151 to 0.2; fold induction at 0.3 µM (T-cell [5]; [14]): 2.51 to 5; fold induction at 1 µM (T-cell [5]; [14]): 5 to 7.5; fold induction at 1 µM (T-cell [6]; Homo sapiens, read-out: CD25 staining, Anti-CD3 stimulation, fold change over baseline): > 1
C[C@H](Cc1nncn1C)c1cccc(NC(=O)c2ccnc3ccnn23)c1 [Compound 328, (R)-N-(3-(1-(4-Methyl-4H-1,2,4-triazol-3-yl)propan-2-yl)phenyl)pyrazolo[1,5-a]pyrimidine-7-carboxamide] | – | – | < 100 | – | ≤ 100 | – | – | – | fold induction at 0.3 µM (T-cell [1]; fold change over baseline, 0.3 μM Cbl-b inhibitor, primary human total T-cells, read-out: CD25 staining Anti-CD3/Anti-CD28 stimulation): 1.01 to 1.3; fold induction at 1 µM (T-cell [1]; fold change over baseline, 1 μM Cbl-b inhibitor, primary human total T-cells, read-out: CD25 staining Anti-CD3/Anti-CD28 stimulation): 1.01 to 1.3; fold induction at 4 µM (T-cell [1]; fold change over baseline, 4 μM Cbl-b inhibitor, primary human total T-cells, read-out: CD25 staining Anti-CD3/Anti-CD28 stimulation): 1.01 to 1.3; fold induction at 1 µM (T-cell [3]; fold change over baseline, 1 μM Cbl-b inhibitor, primary human total T-cells, read-out: IL-2 secretion Anti-CD3 stimulation): 0.051 to 0.1; fold induction at 8 µM (T-cell [3]; fold change over baseline, 8 μM Cbl-b inhibitor, primary human total T-cells, read-out: IL-2 secretion Anti-CD3 stimulation): 0.101 to 0.15; fold induction at 0.3 µM (T-cell [5]; fold change over baseline, 0.3 μM Cbl-b inhibitor, primary human total T-cells, read-out: IL-2 secretion Anti-CD3/Anti-CD28 stimulation): 1.01 to 2.5; fold induction at 1 µM (T-cell [5]; fold change over baseline, 1 μM Cbl-b inhibitor, primary human total T-cells, read-out: IL-2 secretion Anti-CD3/Anti-CD28 stimulation): 1.01 to 2.5; fold induction at 4 µM (T-cell [5]; fold change over baseline, 4 μM Cbl-b inhibitor, primary human total T-cells, read-out: IL-2 secretion Anti-CD3/Anti-CD28 stimulation): 2.51 to 5; fold induction at 1 µM (T-cell [6]; fold change over baseline, 1 μM Cbl-b inhibitor, primary human total T-cells, read-out: CD25 staining Anti-CD3 stimulation): 0.801 to 1; fold induction at 8 µM (T-cell [6]; fold change over baseline, 8 μM Cbl-b inhibitor, primary human total T-cells, read-out: CD25 staining Anti-CD3 stimulation): > 1
C[C@H](Cc1nncn1C)c1cc(N2Cc3c(cccc3C(F)(F)F)C2=O)nc(C2(C)CC2)c1 [Example 681, (R)-2-(4-(1-(4-methyl-4H-1,2,4-triazol-3-yl)propan-2-yl)-6-(l-methylcyclopropyl)pyridin-2-yl)-4-(trifluoromethyl)isoindolin-1-one] | 1.01 to 1.3 | 1.01 to 1.3 | 301 to 1000 | 0.051 to 0.1 | ≤ 1000 | 1.01 to 2.5 | 1.01 to 2.5 | < 0.6 | –
Cn1cnnc1CC1(c2cccc(NC(=O)c3cc(C4CC4)nc4ccnn34)c2)COC1 [Example 604, 5-cyclopropyl-N-(3-(3-((4-methyl-4H-1,2,4-triazol-3-yl)methyl)oxetan-3-yl)phenyl)pyrazolo[1,5-a]pyrimidine-7-carboxamide] | 1.01 to 1.3 | 1.01 to 1.3 | < 100 | < 0.05 | ≤ 100 | 1.01 to 2.5 | 2.51 to 5 | 0.601 to 0.8 | –
Cn1cnnc1CC1(c2cccc(N3Cc4c(cc(N5CC6(CCC6(F)F)C5)cc4C(F)(F)F)C3=O)c2)COC1 [Example 603, 6-(5,5-difluoro-2-azaspiro[3.3]heptan-2-yl)-2-(3-(3-((4-methyl-4H-1,2,4-triazol-3-yl)methyl)oxetan-3-yl)phenyl)-4-(trifluoromethyl)isoindolin-1-one] | 1.01 to 1.3 | 1.01 to 1.3 | < 100 | < 0.05 | ≤ 100 | 1.01 to 2.5 | 2.51 to 5 | 0.601 to 0.8 | –
